Read-outs that look alike come from different tables or passages of the source. One block for each molecule: values may come before it.
What was measured:
[1] = test system: gastric acid secretion; settings: cited from earlier work
[2] = mean ± SD
[3] = Adverse events in the clinical study; type: in vivo, healthy Korean volunteers; settings: CYP2C19 PM group; 20 mg oral once daily for 8 days

SMILES: COc1c(C)cnc(C[S+]([O-])c2nc3ccc(O)cc3[nH]2)c1C (stereo not drawn) [5-O-demethylomeprazole]
effect on gastric acid secretion [1]: does not have an effect on gastric acid secretion

Metabolic ratio omeprazole sulfone (AUC0→12hr, omeprazole sulfone/AUC0→12hr, omeprazole) ([2]; multiple dosing, EM (n = 8)): 2.04 ± 2.39 | Metabolic ratio omeprazole sulfone (AUC0→12hr, omeprazole sulfone/AUC0→12hr, omeprazole) ([2]; multiple dosing, IM (n = 6)): 0.87 ± 0.19 | Metabolic ratio omeprazole sulfone (AUC0→12hr, omeprazole sulfone/AUC0→12hr, omeprazole) ([2]; multiple dosing, PM (n = 8)): 0.90 ± 0.30 | Metabolic ratio omeprazole sulfone (AUC0→12hr, omeprazole sulfone/AUC0→12hr, omeprazole) ([2]; single dosing, EM (n = 8)): 0.78 ± 0.17 | Metabolic ratio omeprazole sulfone (AUC0→12hr, omeprazole sulfone/AUC0→12hr, omeprazole) ([2]; single dosing, IM (n = 6)): 2.89 ± 2.63 | Metabolic ratio omeprazole sulfone (AUC0→12hr, omeprazole sulfone/AUC0→12hr, omeprazole) ([2]; single dosing, PM (n = 8)): 0.65 ± 0.08
SMILES: COc1ccc2nc(S(=O)(=O)Cc3ncc(C)c(OC)c3C)[nH]c2c1 [omeprazole sulfone]

SMILES: COc1ccc2[nH]c([S+]([O-])Cc3ncc(C)c(OC)c3C)nc2c1 (stereo not drawn) [omeprazole, reference compound]
omeprazole-related adverse event [3]: No omeprazole-related adverse event | duration of effect after a single dose ([1]; drug still effective after a single dose): 24 to 72 h

From PMC5383603 (Journal of Korean Medical Science, 2017)
